From patent US20060117411A1, “Enhancing plant pathogen resistance via increasing BiP levels” (priority 1998, published 2006)

How the values were obtained:
[1] = test system: tobacco protoplasts (GUS, cell viability); assay: Transient expression in tobacco protoplasts (pNL200), GUS internal marker; format: cell-based, Nicotiana tabacum; details: tunicamycin 20 μg/mL, 20 hr
Source text: We have established a model system based on the comparison of protein biosynthesis in the cytosol and on the rough ER using transient expression. A plasmid was constructed (pNL200, FIG. 12A) containing two genes, one encoding the secreted barley α-amylase (Rogers, 1985) and the other encoding the cytosolic marker β-glucuronidase (GUS; Jefferson et al., 1987). α-Amylase was used to measure secretory protein biosynthesis, and GUS was used to control for transfection efficiency and overall cell viability. We compared cells under normal culture conditions with cells subjected to ER stress by treatment with tunicamycin. […]
Tobacco leaf protoplasts (from transformed or untransformed plants) were prepared, and electroporation experiments were performed as previously described (Denecke and Vitale, 1995), with minor modifications to the electroporation conditions. […] After 24 or 48 hr, the protoplasts were analysed by enzymatic assay or by protein gel blotting. […]
GUS activity in protoplasts was measured with a […] assay. six mililiters of floated protoplasts were diluted in TEX buffer (B5 salts, 250 mg/L NH4NO3, 750 mg/L CaCl2, 500 mg/L MES, and 0.4 M sucrose, pH 5.7) and were spun down by the addition of 20 mL of 250 mM NaCl. […] The absorbance was measured at 415 nm against a blank containing stop buffer that had been incubated at 37° C. for the duration of the reaction time.

[2] = test system: β-1,3-glucanase mRNA; assay: Tunicamycin treatment of tobacco protoplasts, Northern blot of β-1,3-glucanase; format: cell-based, Nicotiana tabacum; details: tunicamycin 20 μg/mL
Procedure: (§1) To compare the CDE- and UPR-mediated induction of BiP, we wanted to test if both stimuli are additive. […] This is not surprising as protoplasts are prepared with CDEs. These protoplasts were then treated with tunicanycin, to superimpose the UPR onto the CDE response. […] The additional ER stress could trap BiP in malfolded protein complexes, thus making it unavailable to promote PR protein synthesis on the rough ER.
During prolonged incubation times, transcript levels encoding secretory proteins recover to almost normal (initial) values again. Identical results were obtained with other transcripts encoding the secretory proteins acidic chitinase and basic chitinase present in tobacco protoplasts, showing that the effect is not restricted to β-1,3-glucanase (data not shown).
(§2) Protoplasts RNAs were extracted as described by Jones et al., (1985). Leaves were ground in frozen liquid nitrogen and transferred to NTES buffer (0.1 M NaCl, 10 mM Tris pH 7.5, 1 mM EDTA, 1% SDS). Protoplasts samples were frozen in liquid nitrogen and thawed in NTES buffer. RNA was extracted after adding an equal volume of phenol/chloroform. Ethanol precipitation was carried out after incubation at −20° C. for 16 hours. The pellet was resuspended and RNA was selectively precipitated with LiCl (2M LiCl) for 2 hours on ice. The pellet was washed with 70% ethanol and resuspended in diethyl pyrocarbonate-treated water. […]

[3] = test system: BiP mRNA; assay: Tunicamycin treatment of tobacco protoplasts, Northern blot of BiP; format: cell-based, Nicotiana tabacum; details: tunicamycin 20 μg/mL, 2.5 hrs
Procedure: as §1
as §2, with “water. Gel blots of total RNA denatured in formamide and formaldehyde were prepared. RNA was blotted onto Hybond-N membrane (Amersham Corp), as described by the manufacturer.” for “water.”

[4] = test system: PR1 mRNA; details: same experimental system, Vidal et al, 1997; cited from earlier work

tunicamycin
cell viability monitored with the internal marker GUS [1]: does not affect cell viability
transcript level of β-1,3-glucanase during UPR-induced BiP transcription (time course) ([2]; protoplasts): rapidly decreases
β1,3-glucanase expression in protoplasts ([2]; 2.5 hrs): inhibited
BiP induction on top of the CDE response in protoplasts [3]: further induction

O=C(O)c1ccccc1O [SA, Salicylic Acid]
time until which PR1 continues to accumulate (shown previously) [4]: ≤ 48 h
